Reference: PMC3006138, “Fexinidazole – A New Oral Nitroimidazole Drug Candidate Entering Clinical Development for the Treatment of Sleeping Sickness” (PLoS Neglected Tropical Diseases, 2010)
In brackets after ≈: the same amount, converted by molar mass. Entries after “also recorded” stand apart in the source; their conditions may differ.

Tests used:
in vivo = conditions: both sexes, beagle, dog, po
Experimental: In the dog repeated-dose toxicokinetic study, fexinidazole was given orally by gavage once a day for 28 days to five (control and high dose) or three (low and mid dose) beagle dogs/sex/dose at the doses of 0 (control group), 50, 200, or 800 mg/kg/day. The control group received the vehicle alone (same as above). Systemic exposure to fexinidazole and of its sulfoxide and sulfone metabolites was evaluated on days 1, 14 and 28 in the same animals used for the toxicological study. Samples were taken at predose, and 30 min, 1, 2, 4, 8 and 24 h after dosing on days 1, 14, and 28, and in addition at 48 and 72 h after treatment on day 28.

[1] = design: method as in ref 2 (report no. 0259-2007-R); conditions: oral, normalized to 1 mg/kg, previous rat study, ref 2 (report no. 0259-2007-R); cited from earlier work
[2] = Cardiovascular safety by telemetry; conditions: single oral dose
Experimental: Cardiovascular safety parameters were assessed in beagle dogs. Four adult (>1 year old) beagle dogs were given oral doses of fexinidazole at 100, 300 and 1000 mg/kg in an escalating dose design.
6.3. Treatment and Experimental Design
Experimental Day Treatmenta Dose (mg/kg) Volume Animal numbers (males) […]
a) Animals were treated following an escalating dose design with an adequate washout (at least 5 half lives of the longer lasting metabolite) between doses
Doses of 100, 300 and 1000 mg/kg of fexinidazole were selected based on the results of a […]
The oral route is that intende d for clinical administration.
6.3.1. Clinical Observation […]
dosing. Body weights are not reported here but they are archived with the study file.
6.3.2. Telemetry recordings
On the day of dosing, telemetry signals from each animal were collected continuously […]
The following parameters were calculated:
− Systolic blood pressure (SBP, mmHg)
− Diastolic blood pressure (DBP, mmHg)
− Average blood pressure (ABP, mmHg)
− Heart rate (HR, bpm, from the blood pressure signal)
− ECG intervals (RR, PR, QRS and QT, ms)
− Body temperature (BT, °C)
All the above-mentioned parameters were extracted automatically by the Notocord HEM acquisition software (Notocord, Croissy-sur-Seine, France) as the average value of 10-second recordings. […]

African trypanosomes = assay: In vitro activity against African trypanosomes (summary); format: cell-based; conditions: Trypanosoma brucei, laboratory strains and recent clinical isolates
Experimental: (§1) Parasites were cultured with or without the test article at a concentration of 3×10^4/mL in Minimal Essential Medium, according to Baltz et al., with the following modifications: 0.2 mM 2-mercaptoethanol, 1 mM Na-pyruvate, 0.5 mM hypoxanthine and 15% heat inactivated horse serum at 37°C in 5% CO2 in 96-well microtitre plates for 72 h. 10 µL of Alamar Blue was added for the final 3 h to determine viability. The assay was assessed by reading the fluorescence in each well at an excitation wavelength of 536 nm and at an emission wavelength of 588 nm. The IC50 values were calculated from the sigmoidal inhibition curves. For cytotoxicity, 4×10^4/mL L-6 rat skeletal myoblast cells were used, and incubations and assessments carried out as above.

[3] = Irwin's test of general behaviour and body temperature; format: in vivo, rat
Experimental: Neurobehavioural safety was carried out using the Irwin's test of general behaviour and body temperature in male rats, [41]. […] General behaviour was assessed before treatment and 2 h and 24 h after vehicle or drug administration. A defined set of behavioural observations using an arbitrary intensity scale of 0 (no behavioural change) to 8 was made before treatment and 2 h and 24 h after treatment. Factors present in normal animals (e.g. alertness, mobility) were scored as 4; potentiation or depression of these factors was indicated as higher or lower integers, respectively. Factors absent in normal animals were scored from 0 (normal) to 8.
Exp. Treatment(a) Dose Number of Session (mg/kg) Animals/Group
(a) Three animals/group were dosed each day of study.
6.3.2. Allocation/Randomization
The animals were selected and distributed into experimental groups using random number tables (Fisher and Yates).
6.3.3. Dose Administration
Route and Method Oral, gastric gavage
Dosage volumes were adjusted to the individual animal body weights recorded on the day of […]
6.3.4. Dose Justification
In this study, the top dose of […]
dose went from 500 to 1000 mg/kg/day.
6.4. Experimental procedure
6.4.1. Behavioral observations
Behavior of the animals was assessed before treatment, 2 hours and 24 hours after treatment.
After treatment, animals were put in their home cages. Observation was performed in 5 steps:
• Home cage observations: piloerection, bizarre behavior, exophthalmus, respiration, tremors, twitches, convulsions
Nerviano Medical Sciences

CYP3A5 = CYP3A5 (Homo sapiens, UniProt P20815); assay: In vitro CYP-450 metabolism; format: in vitro ADME; conditions: 1.0 µM, up to 60 min
Experimental: (§2) Duplicate samples of human recombinant CYP enzyme isotypes CYP1A2, CYP2B6, CYP2C8, CYP2C9, CYP2C19, CYP2D6, CYP3A4, CYP3A5 (10–30 pmol/mL) with NADPH as cofactor were incubated with fexinidazole, fexinidazole sulfoxide, or fexinidazole sulfone at a concentration of 1.0 µM for up to 60 min (pH 7.4, 37°C). Detection of the compounds was via HPLC-MS.

CYP2C8 = CYP2C8 (Homo sapiens, UniProt P10632); assay: In vitro CYP-450 metabolism; format: in vitro ADME; conditions: 1.0 µM, up to 60 min
Experimental: as §2

CYP2C19 = CYP2C19 (Homo sapiens, UniProt P33261); assay: In vitro CYP-450 metabolism; format: in vitro ADME; conditions: 1.0 µM, up to 60 min
Experimental: as §2

CYP3A4 = CYP3A4 (Homo sapiens, UniProt P08684); assay: In vitro CYP-450 metabolism; format: in vitro ADME; conditions: 1.0 µM, up to 60 min
Experimental: as §2

CYP2C9 = CYP2C9 (Homo sapiens, UniProt P11712); assay: In vitro CYP-450 metabolism; format: in vitro ADME; conditions: 1.0 µM, up to 60 min
Experimental: as §2

CYP2B6 = CYP2B6 (Homo sapiens, UniProt P20813); assay: In vitro CYP-450 metabolism; format: in vitro ADME; conditions: 1.0 µM, up to 60 min
Experimental: as §2

CYP1A2 = CYP1A2 (Homo sapiens, UniProt P05177); assay: In vitro CYP-450 metabolism; format: in vitro ADME; conditions: 1.0 µM, up to 60 min
Experimental: as §2

[4] = tested on: T. b. gambiense clinical isolates; assay: In vitro trypanocidal assay, clinical isolates; format: cell-based; conditions: Trypanosoma brucei, six recent clinical isolates, data not shown
Experimental: as §1

Chain of CYP3A4 (P08684 whole entry): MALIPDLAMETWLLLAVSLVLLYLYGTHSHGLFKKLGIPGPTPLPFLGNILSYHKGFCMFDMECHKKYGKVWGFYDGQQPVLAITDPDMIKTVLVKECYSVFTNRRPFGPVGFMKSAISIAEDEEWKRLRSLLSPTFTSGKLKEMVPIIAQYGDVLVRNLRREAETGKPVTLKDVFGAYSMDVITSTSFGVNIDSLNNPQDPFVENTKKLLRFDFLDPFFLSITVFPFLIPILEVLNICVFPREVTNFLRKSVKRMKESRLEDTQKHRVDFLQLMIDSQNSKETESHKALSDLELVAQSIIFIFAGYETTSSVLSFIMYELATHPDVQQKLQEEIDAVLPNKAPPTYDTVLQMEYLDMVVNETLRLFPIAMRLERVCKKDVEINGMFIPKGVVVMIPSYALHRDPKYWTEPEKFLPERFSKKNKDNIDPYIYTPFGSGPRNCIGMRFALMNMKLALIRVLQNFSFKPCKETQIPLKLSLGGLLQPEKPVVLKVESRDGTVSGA
Chain of CYP1A2 (P05177 whole entry): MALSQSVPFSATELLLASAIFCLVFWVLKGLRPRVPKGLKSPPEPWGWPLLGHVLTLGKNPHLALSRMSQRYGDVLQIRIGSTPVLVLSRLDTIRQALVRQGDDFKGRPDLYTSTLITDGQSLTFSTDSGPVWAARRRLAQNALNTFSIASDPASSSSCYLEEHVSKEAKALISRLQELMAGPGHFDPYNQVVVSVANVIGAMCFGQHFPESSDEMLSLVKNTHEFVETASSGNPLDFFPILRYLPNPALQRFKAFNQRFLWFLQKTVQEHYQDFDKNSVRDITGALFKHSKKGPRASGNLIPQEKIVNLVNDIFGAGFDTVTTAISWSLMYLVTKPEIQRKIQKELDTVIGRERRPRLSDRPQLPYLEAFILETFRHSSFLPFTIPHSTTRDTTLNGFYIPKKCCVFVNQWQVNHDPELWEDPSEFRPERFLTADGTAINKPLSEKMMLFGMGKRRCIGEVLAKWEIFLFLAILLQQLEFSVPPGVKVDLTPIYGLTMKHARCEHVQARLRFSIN
Chain of CYP2B6 (P20813 whole entry): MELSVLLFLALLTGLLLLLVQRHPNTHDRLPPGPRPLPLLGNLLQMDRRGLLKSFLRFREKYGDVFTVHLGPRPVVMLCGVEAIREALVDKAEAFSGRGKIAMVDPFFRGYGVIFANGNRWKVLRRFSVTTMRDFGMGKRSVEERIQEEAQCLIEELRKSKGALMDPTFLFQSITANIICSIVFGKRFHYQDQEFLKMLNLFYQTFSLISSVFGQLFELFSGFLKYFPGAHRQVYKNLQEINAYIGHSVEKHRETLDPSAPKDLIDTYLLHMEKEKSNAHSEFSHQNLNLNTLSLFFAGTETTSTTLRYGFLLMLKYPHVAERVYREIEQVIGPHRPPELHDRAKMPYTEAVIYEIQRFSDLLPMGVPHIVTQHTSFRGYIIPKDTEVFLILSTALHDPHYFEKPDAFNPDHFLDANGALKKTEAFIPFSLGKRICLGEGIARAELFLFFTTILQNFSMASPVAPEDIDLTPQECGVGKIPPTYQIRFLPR
Chain of CYP2C8 (P10632 whole entry): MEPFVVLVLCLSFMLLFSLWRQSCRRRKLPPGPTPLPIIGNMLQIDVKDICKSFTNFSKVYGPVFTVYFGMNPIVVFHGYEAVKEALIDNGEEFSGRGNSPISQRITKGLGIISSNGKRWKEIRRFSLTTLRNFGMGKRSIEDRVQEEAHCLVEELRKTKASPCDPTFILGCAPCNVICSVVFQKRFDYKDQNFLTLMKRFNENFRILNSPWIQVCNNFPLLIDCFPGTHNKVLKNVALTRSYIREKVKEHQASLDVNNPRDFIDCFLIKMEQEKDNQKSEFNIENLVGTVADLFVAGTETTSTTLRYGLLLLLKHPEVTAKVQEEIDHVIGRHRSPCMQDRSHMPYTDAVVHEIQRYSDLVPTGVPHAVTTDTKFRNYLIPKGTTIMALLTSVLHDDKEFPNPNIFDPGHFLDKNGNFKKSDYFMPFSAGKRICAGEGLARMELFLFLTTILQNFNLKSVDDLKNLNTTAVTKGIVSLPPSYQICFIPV
Chain of CYP3A5 (P20815 whole entry): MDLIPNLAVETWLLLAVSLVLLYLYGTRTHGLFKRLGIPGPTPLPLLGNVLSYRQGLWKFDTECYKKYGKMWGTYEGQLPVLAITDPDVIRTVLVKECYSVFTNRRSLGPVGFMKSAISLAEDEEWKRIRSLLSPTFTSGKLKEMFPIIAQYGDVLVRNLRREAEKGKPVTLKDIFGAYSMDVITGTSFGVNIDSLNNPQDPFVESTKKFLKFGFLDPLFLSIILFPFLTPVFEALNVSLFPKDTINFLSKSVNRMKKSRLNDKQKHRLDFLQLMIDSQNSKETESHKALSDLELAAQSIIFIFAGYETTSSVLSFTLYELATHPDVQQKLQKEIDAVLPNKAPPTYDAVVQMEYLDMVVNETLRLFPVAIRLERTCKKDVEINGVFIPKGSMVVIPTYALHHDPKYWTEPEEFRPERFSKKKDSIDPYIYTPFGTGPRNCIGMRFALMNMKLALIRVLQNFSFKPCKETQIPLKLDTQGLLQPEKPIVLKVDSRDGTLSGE
Chain of CYP2C19 (P33261 whole entry): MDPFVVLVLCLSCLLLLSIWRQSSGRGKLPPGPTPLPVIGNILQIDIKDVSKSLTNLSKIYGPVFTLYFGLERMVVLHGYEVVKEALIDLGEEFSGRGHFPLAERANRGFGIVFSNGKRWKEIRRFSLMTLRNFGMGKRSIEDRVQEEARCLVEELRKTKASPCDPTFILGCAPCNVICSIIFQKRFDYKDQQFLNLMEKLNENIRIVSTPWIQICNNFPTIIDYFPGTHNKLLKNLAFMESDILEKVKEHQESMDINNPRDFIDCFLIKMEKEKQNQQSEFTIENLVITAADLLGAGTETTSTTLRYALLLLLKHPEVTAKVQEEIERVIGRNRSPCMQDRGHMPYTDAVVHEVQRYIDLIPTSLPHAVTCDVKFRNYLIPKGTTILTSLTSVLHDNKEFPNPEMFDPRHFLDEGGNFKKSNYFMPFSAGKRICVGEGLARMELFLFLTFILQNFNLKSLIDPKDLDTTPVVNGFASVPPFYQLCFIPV
Chain of CYP2C9 (P11712 whole entry): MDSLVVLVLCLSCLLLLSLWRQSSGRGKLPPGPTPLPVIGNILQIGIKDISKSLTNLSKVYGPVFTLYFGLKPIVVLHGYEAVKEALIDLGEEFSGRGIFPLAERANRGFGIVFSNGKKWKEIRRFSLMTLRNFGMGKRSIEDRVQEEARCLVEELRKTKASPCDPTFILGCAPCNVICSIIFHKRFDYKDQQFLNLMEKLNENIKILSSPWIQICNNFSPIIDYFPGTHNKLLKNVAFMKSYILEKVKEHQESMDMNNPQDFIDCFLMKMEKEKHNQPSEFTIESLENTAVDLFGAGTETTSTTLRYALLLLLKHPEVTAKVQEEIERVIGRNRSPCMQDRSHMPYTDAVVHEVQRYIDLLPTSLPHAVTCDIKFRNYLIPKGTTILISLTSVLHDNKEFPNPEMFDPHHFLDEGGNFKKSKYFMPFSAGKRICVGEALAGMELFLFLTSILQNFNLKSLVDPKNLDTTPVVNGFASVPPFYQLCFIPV

Structure (SMILES): CSc1ccc(OCc2ncc([N+](=O)[O-])n2C)cc1 [Fexinidazole, 1-methyl-2-((p-(methylthio)phenoxy)methyl)-5-nitroimidazole]
- NOAEL at 28 days (in vivo): 200 mg/kg/day
- AUC0-∞, norm [1]: 45 ng⋅h/mL
- NOEL on body temperature [2]: 100 mg/kg
- NOEL on cardiovascular parameters and ECG intervals [2]: 1000 mg/kg
- IC50 (African trypanosomes): 0.1 to 0.8 µg/mL (≈ 0.358 to 2.86 µM)
- Body temperature ([3]; 100 mg/kg, 2 hours): 38.3 ± 0.3 °C
- Body temperature ([3]; 100 mg/kg, 24 hours): 38.2 ± 0.3 °C
- Body temperature ([3]; 300 mg/kg, 2 hours): 38.1 ± 0.5 °C
- Body temperature ([3]; 300 mg/kg, 24 hours): 37.9 ± 0.6 °C
- Body temperature ([3]; 1000 mg/kg, 2 hours): 38.3 ± 0.3 °C
- Body temperature ([3]; 1000 mg/kg, 24 hours): 38.1 ± 0.3 °C
- effects on general behaviour and body temperature ([3]; 100, 300 or 1000 mg/kg po): no meaningful effects; also recorded: no effects were observed
- No-Observed-Effect-Level on general behavior and body temperature ([3]; single oral dose): ≥ 1000 mg/kg
- metabolism by the enzyme (CYP3A5): extensively metabolised
- metabolism by the enzyme (CYP2C8): inactive
- metabolism by the enzyme (CYP2C19): extensively metabolised
- metabolism by the enzyme (CYP3A4): extensively metabolised
- metabolism by the enzyme (CYP2C9): inactive
- metabolism by the enzyme (CYP2B6): extensively metabolised
- metabolism by the enzyme (CYP1A2): extensively metabolised
- IC50 [4]: 0.3 to 0.93 µg/mL (≈ 1.07 to 3.33 µM)
